Data taken from patent US8741911B2, “Raf inhibitor compounds” (Eli Lilly and Company, priority 2012, dated 2014).
Where two headings read alike, the source gives them in different places.

Assays:
[1] = system: 786-0; test: CellTiter-Glo proliferation and viability assay; assay type: cell-based; details: Homo sapiens
[2] = system: HT-1080; test: CellTiter-Glo proliferation and viability assay; assay type: cell-based; details: Homo sapiens
[3] = system: SK-MeI-2 cells harboring N-Ras mutation Q61R, and B-Raf wild type; test: CellTiter-Glo proliferation and viability assay; assay type: cell-based; details: Homo sapiens; SK-MeI-2, CellTiter-Glo; read-out: cell proliferation and viability IC50
[4] = system: phospho-MEK and phospho-ERK in HCT-116 cells harboring B-Raf wild type and K-Ras mutation; test: Immunoblotting (Western Blot) analysis, paradoxical pathway activation; assay type: cell-based, human
Experimental: Testing is carried out at doses of 0, and 11 serial dilutions ranging from 0.17 to 10000 nM. Protein lysates are generated by treatment of the cells with RIPA lysis buffer from Millipore. Western blotting analysis is performed substantially as described in Yadav et al, Molecular Carcinogenesis, 2011, 50: 346-52. Briefly, SDS-PAGE is performed on cell lysates containing 20 ug of total protein using 4-20% Novex® tri-glycine gradient gels (Invitrogen). Protein is transferred onto […] nitrocellulose membranes using NuPAGE® Transfer Buffer (Invitrogen) and 10% methanol at 100 V, 4° C. for 1 hr. Generally, the primary antibody is used at 1:1000 dilution, and secondary antibody at 1:20000 dilution. Proteins are detected using the Odyssey Infrared Imaging System (Li-COR Biosciences). Antibodies against ERK1/2, phospho-ERK1/2, phospho-MEK1/2, and actin are obtained from Cell Signaling Technology.
Testing is carried out at doses of 0, and 11 serial dilutions ranging from 0.17 to 10000 nM. The phospho-MEK and phospho-ERK activities were evaluated by Immunoblotting (Western Blot) analysis.

[5] = system: TALL-1; test: CellTiter-Glo proliferation and viability assay; assay type: cell-based; details: Homo sapiens, read-out: Abs IC50
[6] = system: HCT-116 cells; test: CellTiter-Blue HCT-116 cell proliferation assay; assay type: cell-based; details: Homo sapiens; HCT-116, CellTiter-Blue; read-out: Cell Proliferation Inhibition IC50
Experimental: HCT-116 cells (catalog #CCL-247) are obtained from the American Type Culture Collection (ATCC, Manassas, Va.). Briefly, cells are grown in McCoy's 5A supplemented with 10% characterized fetal bovine serum (Invitrogen, Carlsbad, Calif.), and 1% Penicillin/Streptomycin/L-Glutamine at 37 degrees Celsius, 5% CO2, and 95% humidity. Cells are allowed to expand until reaching 75-90% confluency at which point they are subcultured or harvested for assay use. A serial dilution of test compound is dispensed into a 384-well black clear bottom plate in triplicate. Six hundred twenty-five cells are added per well in 50 μL complete growth medium in the 384-well plate. Plates are incubated for 67 hours at 37 degrees Celsius, 5% CO2, and 95% humidity. At the end of the incubation period, 10 μL of a 440 μM solution of resazurin (Sigma, St. Louis, Mo.) in PBS is added to each well of the plate and plates are incubated for an additional 5 hours at 37 degrees Celsius, 5% CO2, and 95% humidity. Plates are read on a Synergy2 reader (Biotek, Winooski, Vt.) using an excitation of 540 nm and an emission of 600 nm. Data is analyzed using Prism software (Graphpad, San Diego, Calif.) to calculate IC50 values.
The A375, HT-29, and Colo-205 cells (ATCC) harbor a V600E mutation.

[7] = system: NUGC-3; test: CellTiter-Glo proliferation and viability assay; assay type: cell-based; details: Homo sapiens
[8] = system: AGS; test: CellTiter-Glo proliferation and viability assay; assay type: cell-based; details: Homo sapiens
[9] = system: NCI-H2126; test: CellTiter-Glo proliferation and viability assay; assay type: cell-based; details: Homo sapiens
[10] = system: MKN45; test: CellTiter-Glo proliferation and viability assay; assay type: cell-based; details: Homo sapiens
[11] = system: NCI-H1975; test: CellTiter-Glo proliferation and viability assay; assay type: cell-based; details: Homo sapiens
[12] = system: A375; test: CellTiter-Glo proliferation and viability assay; assay type: cell-based; details: Homo sapiens
[13] = system: Colo-205; test: CellTiter-Glo proliferation and viability assay; assay type: cell-based; details: Homo sapiens, Colo-205, B-Raf V600E, colon
Text: (§1) B-Raf mutations, particularly B-Raf V600E in human cancer are often observed in human malignancies including melanoma, colorectal, lung, and ovarian cancers. This mutation in B-Raf may lead to constitutive kinase activity and malignant transformation.

[14] = system: WM-266-4; test: CellTiter-Glo proliferation and viability assay; assay type: cell-based; details: Homo sapiens, WM-266-4, B-Raf V600E, melanoma
Text: as §1

[15] = system: DMS-53; test: CellTiter-Glo proliferation and viability assay; assay type: cell-based; details: Homo sapiens, read-out: Abs IC50
[16] = system: M059K; test: CellTiter-Glo proliferation and viability assay; assay type: cell-based; details: Homo sapiens
[17] = system: HCC70; test: CellTiter-Glo proliferation and viability assay; assay type: cell-based; details: Homo sapiens
[18] = system: IM-9; test: CellTiter-Glo proliferation and viability assay; assay type: cell-based; details: Homo sapiens, read-out: Abs IC50
[19] = system: A549; test: CellTiter-Glo proliferation and viability assay; assay type: cell-based; details: Homo sapiens

With CNc1ncc2cc(-c3cc(NC(=O)NCCC(C)(C)C)c(F)cc3C)c(C)nc2n1 [Example 1, 1-(3,3-Dimethylbutyl)-3-(2-fluoro-4-methyl-5-(7-methyl-2-(methylamino)pyrido[2,3-d]pyrimidin-6-yl)phenyl)urea] the IC50 ([1]; read-out: Abs IC50) was over 20 nM, the IC50 ([1]; read-out: Rel IC50) was 4.58 nM and the IC50 ([2]; read-out: Abs IC50) was 0.98 nM. For the same compound, the IC50 ([2]; read-out: Rel IC50) was 0.5 nM, the IC50 [3] was 188 nM and the paradoxical pathway activation ([4]; HCT-116, B-Raf wild type and K-Ras mutation) was “minimal paradoxical pathway activation”. The “doses that substantially eliminate phospho-ERK signal” value ([4]; HCT-116, Western Blot) was “above 41 nM”, the IC50 [5] was 0.75 nM and the IC50 [6] was 224 nM. For the same compound, the IC50 ([7]; read-out: Abs IC50) was 0.68 nM, the IC50 ([7]; read-out: Rel IC50) was 0.21 nM and the IC50 ([8]; read-out: Abs IC50) was 1.14 nM. It also gave an IC50 ([8]; read-out: Rel IC50) of 0.34 nM, an IC50 ([9]; read-out: Abs IC50) of over 20 nM and an IC50 ([9]; read-out: Rel IC50) of over 20 nM. For the same compound, the IC50 ([10]; MKN-45, read-out: Abs IC50) was 5.72 nM, the IC50 ([10]; MKN-45, read-out: Rel IC50) was 0.87 nM and the IC50 ([11]; read-out: Abs IC50) was 0.93 nM. The IC50 ([11]; read-out: Rel IC50) was 0.69 nM, the IC50 ([12]; A-375, A375, B-Raf V600E, melanoma) was 9.2 nM and the IC50 ([12]; A-375, parental A375 B-Raf V600E cells, comparison with A375res) was 11 nM. The IC50 [13] was 27 nM, the IC50 [14] was 52.9 nM and the IC50 [15] was 0.6 nM. For the same compound, the IC50 ([16]; read-out: Abs IC50) was 15.1 nM, the IC50 ([16]; read-out: Rel IC50) was 1.01 nM and the IC50 ([17]; read-out: Abs IC50) was over 20 nM. For the same compound, the IC50 ([17]; read-out: Rel IC50) was over 20 nM, the IC50 [18] was 0.38 nM and the IC50 ([19]; read-out: Abs IC50) was 4.42 nM. The IC50 ([19]; read-out: Rel IC50) was 2.07 nM.
